Assay results reported in patent publication EP0968222B1, “NOVEL ERYTHROMYCIN DERIVATIVES, METHOD OF PREPARATION AND APPLICATION AS MEDICINES” (Aventis Pharma S.A., priority 1997, dated 1998).
Values after ≈ are worked out from the molar mass of the structure shown.

Columns and labels:
Assay in all cases: Liquid medium dilution method (MIC)
Format in all cases: cell-based
[1] = test system: Staphylococcus aureus 011UC4; settings: 24 h incubation at 37°C, read-out: concentrations minimales inhibitrices (C.M.I.)
Method: (§1) Méthode des dilutions en milieu liquide
(§2) On prépare une série de tubes dans lesquels on répartit une même quantité de milieu nutritif stérile. On distribue dans chaque tube des quantités croissantes du produit à étudier, puis chaque tube est ensemencé avec une souche bactérienne. Après incubation de vingt-quatre heures à l'étuve à 37°C, l'inhibition de la croissance est appréciée par transillumination, ce qui permet de déterminer les concentrations minimales inhibitrices (C.M.I.) exprimées en microgrammes/cm^3.

[2] = test system: Streptococcus agalactiae groupe B 02B1HT1; settings: 24 h incubation at 37°C, read-out: concentrations minimales inhibitrices (C.M.I.)
Method: as §1, §2

[3] = test system: Streptococcus agalactiae groupe B 02B1SJ1; settings: 24 h incubation at 37°C, read-out: concentrations minimales inhibitrices (C.M.I.)
Method: as §1, §2

[4] = test system: Streptococcus faecalis groupe D 02D2UC1; settings: Enterococcus faecalis, 24 h incubation at 37°C, read-out: concentrations minimales inhibitrices (C.M.I.)
Method: as §1, §2

[5] = test system: Streptococcus faecium groupe D 02D3HT1; settings: Enterococcus faecium, 24 h incubation at 37°C, read-out: concentrations minimales inhibitrices (C.M.I.)
Method: as §1, §2

[6] = test system: Streptococcus mitis 02mitCB1; settings: 24 h incubation at 37°C, read-out: concentrations minimales inhibitrices (C.M.I.)
Method: as §1, §2

[7] = test system: Streptococcus pneumoniae 030GR20; settings: 24 h incubation at 37°C, read-out: concentrations minimales inhibitrices (C.M.I.)
Method: as §1, §2

[8] = test system: Streptococcus pneumoniae 030PW23c; settings: 24 h incubation at 37°C, read-out: concentrations minimales inhibitrices (C.M.I.)
Method: as §1, §2

[9] = test system: Streptococcus pneumoniae 030RO1i; settings: 24 h incubation at 37°C, read-out: concentrations minimales inhibitrices (C.M.I.)
Method: as §1, §2

[10] = test system: Streptococcus pneumoniae 030SJ1c; settings: 24 h incubation at 37°C, read-out: concentrations minimales inhibitrices (C.M.I.)
Method: as §1, §2

[11] = test system: Streptococcus pneumoniae 032UC1; settings: 24 h incubation at 37°C, read-out: concentrations minimales inhibitrices (C.M.I.)
Method: as §1, §2

[12] = test system: Streptococcus pyogenes groupe A 02A1UC1; settings: 24 h incubation at 37°C, read-out: concentrations minimales inhibitrices (C.M.I.)
Method: as §1, §2

Streptococcus sanguis = settings: 24 h incubation at 37°C, read-out: concentrations minimales inhibitrices (C.M.I.)
Method: as §1, §2

SMILES: CC[C@H]1OC(=O)[C@H](C)C(=O)[C@H](C)[C@@H](O[C@@H]2O[C@H](C)C[C@H](N(C)C)[C@H]2O)[C@](C)(OC)C[C@@H](C)/C(=N\OC2CCCNC2)[C@H](C)[C@H]2N(NCCCc3ccnc4ccccc34)C(=O)O[C@]12C (stereo partly shown) [Exemple 3]
- MIC [1]: 0.3 µg/mL (≈ 0.335 µM)
- MIC [2]: 0.08 µg/mL (≈ 0.0894 µM)
- MIC [3]: 0.08 µg/mL (≈ 0.0894 µM)
- MIC [4]: 0.08 µg/mL (≈ 0.0894 µM)
- MIC [5]: 0.08 µg/mL (≈ 0.0894 µM)
- MIC [6]: 0.04 µg/mL (≈ 0.0447 µM)
- MIC [7]: 0.04 µg/mL (≈ 0.0447 µM)
- MIC [8]: 0.08 µg/mL (≈ 0.0894 µM)
- MIC [9]: 0.08 µg/mL (≈ 0.0894 µM)
- MIC [10]: 0.15 µg/mL (≈ 0.168 µM)
- MIC [11]: ≤ 0.02 µg/mL
- MIC [12]: 0.08 µg/mL (≈ 0.0894 µM)
- MIC (Streptococcus sanguis): 0.08 µg/mL (≈ 0.0894 µM)
